Laboratory results: PubChem BioAssay AID2790 (The Scripps Research Institute Molecular Screening Center, 2010)
Calls of active or inactive are those of the source.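 Rule for the calls: active = IC50 at or below 10 micromolar; inactive = IC50 above 10 micromolar.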

Biological target: Bcl-2-like protein 1 (Homo sapiens) (UniProt Q07817)
Test: Bcl-xL inhibitors, concentration-response – biochemical, fluorescence polarization, powder samples, counter-screen for MCL1-BIM inhibitor project, dose response (AID 2790)
Details: GST-BCL-XL / FITC-Bim BH3 fluorescence polarization

Chain of Bcl-2-like protein 1 (Homo sapiens) (Q07817 whole entry, looked up): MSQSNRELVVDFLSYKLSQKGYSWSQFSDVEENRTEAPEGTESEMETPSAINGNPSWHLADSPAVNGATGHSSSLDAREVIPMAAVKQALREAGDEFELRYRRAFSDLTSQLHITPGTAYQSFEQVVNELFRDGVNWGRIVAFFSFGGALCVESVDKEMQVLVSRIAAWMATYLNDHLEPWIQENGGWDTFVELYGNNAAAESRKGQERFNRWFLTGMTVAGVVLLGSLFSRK

Compound: c1coc(-c2nc(-c3ccco3)c(-c3ccco3)nc2-c2ccco2)c1
- IC50: > 109 µM (inactive)

Compound: C=CCn1c(SCC(=O)c2ccc(O)c(O)c2)nnc1-c1cccnc1
- IC50: inactive

Compound: COc1ccc(-n2cccc2/C=C2\C(=N)N3N=C(c4ccco4)SC3=NC2=O)cc1
- IC50: > 109 µM (inactive)

Compound: O=C1COc2ccc(C(=O)COC(=O)/C=C/c3ccc(Br)o3)cc2N1
- IC50: > 109 µM (inactive)

Compound: COc1ccc(Cc2nnc(NC(=O)Cc3cccs3)s2)cc1OC
- IC50: > 109 µM (inactive)

Compound: C=CCN=c1scc(-c2ccco2)n1/N=C/c1ccc(O)c(O)c1O
- IC50: > 109 µM (inactive)

Compound: Nc1ccc(C(=O)NN=Cc2cc(N=Nc3cccc4ccccc34)ccc2O)cc1
- IC50: > 109 µM (inactive)

Compound: CCc1sc(C(C2C(=O)CC(C)(C)CC2=O)C2C(=O)CC(C)(C)CC2=O)cc1[N+](=O)[O-]
- IC50: > 109 µM (inactive)

Compound: O=C(NN=Cc1ccc(-c2ccc(S(=O)(=O)Nc3ncccn3)cc2)o1)c1cc2ccccc2cc1O
- IC50: > 109 µM (inactive)

Compound: COc1ccc(NC(=O)CN(C)C(=O)c2cc3c(s2)CCC3)cc1
- IC50: > 109 µM (inactive)

Compound: CCOc1ccc(NC(=O)c2cccc(-n3cccc3)c2)cc1S(=O)(=O)N1CCOCC1
- IC50: > 109 µM (inactive)

Compound: Cc1ccc(C(=O)O)cc1-c1ccc(/C=C2\SC(=O)N(CC(=O)Nc3ccc4c(c3)OCO4)C2=O)o1
- IC50: > 109 µM (inactive)

Compound: Cc1cccc(NC(=O)CNC(=O)c2cccc(-n3cccc3)c2)c1C
- IC50: > 109 µM (inactive)

Compound: O=C(NN=Cc1cccc(F)c1)c1cc(-c2ccco2)nc2ccccc12
- IC50: > 109 µM (inactive)

Compound: COC(=O)c1ccccc1NCc1cc(=O)oc2cc(O)c(O)cc12
- IC50: > 109 µM (inactive)
